Results published in patent US10330683B2, “Mutant smoothened and methods of using the same” (Genentech, Inc., priority 2015, dated 2019).
Entries after “also recorded” stand apart in the source; their conditions may differ.

What was measured:
[1] = tested on: PPT CGNPs expressing vismodegib-resistant SMO mutants; assay: methyl-[3H]-thymidine incorporation (proliferation) of virally transduced PPT CGNPs after removal of SHH; assay type: cell-based, mice; settings: 1 μM JQ1; FIG. 16B
Description: (§1) It has previously been noted that Hh-driven tumor cells rapidly lose their Hh pathway dependence during culturing (Sasai et al., 2006). However, CGNPs proliferate in vivo in a Hh dependent manner and maintain their Hh pathway dependence in culture for a finite period (Wechsler-Reya and Scott, 1999). CGNPs isolated from Ptch1loxp/loxp Tp53loxp/loxp Rosa26LSL-tdTomato (PPT) pups were infected with lentiviral constructs expressing a SMO variant together with an enhanced green fluorescent protein (eGFP)-Cre fusion protein (FIG. 12C). The Cre recombinase induces loss of Ptch1 and thus ensures that only transduced CGNPs can proliferate in the absence of exogenous Sonic hedgehog ligand (SHH; FIG. 11D). […] Proliferation by methyl-[3H]-thymidine incorporation was monitored, while Cre-dependent tandem dimer (td) Tomato expression enabled visualization and quantification of infected cells. This system also enabled better model patient genetics because most of the SMO mutations were identified in tumors that harbored TP53 mutations and were driven by loss of PTCH1. […] It was confirmed that CGNPs were infected at similar frequencies by fluorescence-activated cell sorting (FACS) analysis for Cre-dependent tdTomato reporter expression, and that the SMO variants were expressed at equivalent levels by quantitative reverse transcription (qRT) PCR.
(§2) Cerebella from post-natal day 5-7 Ptch1^loxp/loxp Rosa26^LSLtdTomato Tp53^loxp/loxp mice were dissociated in 0.05% Trypsin for 10 min at 37° C. Cells were collected by centrifugation at 514×g for 10 min at 4° C., resuspended in CGNP media (Neurobasal medium (Life Technologies) containing 1×B27 (without vitamin A; Life Technologies), 0.45% glucose (Sigma Aldrich), 25 mM KCl, 0.4% bovine serum albumin (Sigma Aldrich), 2 mM glutamine, 100 U/ml Penicillin (Life Technologies), 100 μg/ml Streptomycin (Life Technologies), 200 ng/ml octylated recombinant SHH) and filtered through a 0.45 μm filter (Falcon). Cells were plated in poly-D-lysine coated 6-well plates (Corning) at 5×10E5 cells/well and infected with lentivirus at a multiplicity of infection (MOI) of 1. After 24 hr, cells were harvested by trypsinization, collected in CGNP media and replated for downstream applications.
(§3) To examine the effects of HPIs on proliferation, virally transduced CGNPs were plated in poly-D-lysine-coated 96-well plates (Corning) at 25,000 cells/well in CGNP media without SHH. […] After 24 hr, cells were pulsed with 1 μCi/ml methyl-[^3H]-thymidine (Amersham/GE Healthcare) and cultured for an additional 16-24 hr. Cells were harvested onto 96-well filter plates (Perkin Elmer) using a Filtermate Cell Harvester (Perkin Elmer), and incorporated radioactivity was quantified by liquid scintillation spectrophotometry on a TopCount NXT (PerkinElmer).

[2] = tested on: PPT CGNPs infected with SMO-WT and Cre; assay: as above; assay type: cell-based, mice
Description: as §1, §2, §3

[3] = tested on: SMO-N219D; settings: cited from earlier work
[4] = tested on: SMO-S387N; settings: cited from earlier work
[5] = tested on: SMO-L221R; settings: cited from earlier work
[6] = tested on: SMO-D384N; settings: cited from earlier work
[7] = target: T1, SMO-A459V (Homo sapiens, UniProt Q99835, A459V); assay: Gli-luciferase based Hh reporter assay in C3H10T½ cells transfected with SMO constructs; assay type: cell-based, mouse; settings: GLI1 luciferase reporter, FIGS. 5A-5C
T1 construct: expressed in transfected cells; host or cells: C3H10T½ cells (mouse)
Protocol: (§4) SMO mutants were generated in pRK5-SMO vectors as described (Dijkgraaf et al., 2011; Yauch et al., 2009) and were either utilized in Gli-luciferase reporter assays as described (Dijkgraaf et al., 2011) or cloned into lentiviral vectors for transduction of primary CGNP cultures. Proliferation was assayed using methyl-[3H]-thymidine incorporation (Kool et al., 2014).
(§5) C3H10T½ cells (ATCC) were seeded into six-well plates at 1.75×10E5 cells/well in DMEM High Glucose with 4 mM glutamine, 10 mM Hepes pH 7.2 and 10% FBS. After 16 h cells were transfected with 400 ng of expression construct, 400 ng of 9×-Gli-BS and 200 ng of pRL-TK per well using GeneJuice Transfection Reagent (Novagen). For the PTCH1 inhibition experiments, cells were transfected with 200 ng SMO expression construct and an additional 200 ng of DNA containing varying ratios of PTCH1 to empty vector. Six hours later, cells from one well were trypsinized and redistributed over four wells of a 12-well plate. After 16 hours the FBS content of the culture medium was reduced to 0.5% to induce formation of primary cilia, and small molecule Hh inhibitors were added at indicated concentrations. Firefly luciferase activity was determined 24 hours later with the Dual-Glo Luciferase Assay System (Promega) and read using a Wallac EnVision plate reader (Perkin Elmer). […]

[8] = tested on: SMOW535L expressing CGNPs; assay: methyl-[3H]-thymidine incorporation (proliferation) of virally transduced PPT CGNPs after removal of SHH; assay type: cell-based, mice; settings: high concentrations of vismodegib, FIGS. 14D and 15E
Description: (§6) It has previously been noted that Hh-driven tumor cells rapidly lose their Hh pathway dependence during culturing (Sasai et al., 2006). However, CGNPs proliferate in vivo in a Hh dependent manner and maintain their Hh pathway dependence in culture for a finite period (Wechsler-Reya and Scott, 1999). CGNPs isolated from Ptch1loxp/loxp Tp53loxp/loxp Rosa26LSL-tdTomato (PPT) pups were infected with lentiviral constructs expressing a SMO variant together with an enhanced green fluorescent protein (eGFP)-Cre fusion protein (FIG. 12C). The Cre recombinase induces loss of Ptch1 and thus ensures that only transduced CGNPs can proliferate in the absence of exogenous Sonic hedgehog ligand (SHH; FIG. 11D). […] Proliferation by methyl-[3H]-thymidine incorporation was monitored, while Cre-dependent tandem dimer (td) Tomato expression enabled visualization and quantification of infected cells.
as §2, with “After 24 hr, cells were harvested by trypsinization, collected in CGNP media and replated for downstream applications.” left out
(§7) To examine the effects of HPIs on proliferation, virally transduced CGNPs were plated in poly-D-lysine-coated 96-well plates (Corning) at 25,000 cells/well in CGNP media without SHH. […] Cells were harvested onto 96-well filter plates (Perkin Elmer) using a Filtermate Cell Harvester (Perkin Elmer), and incorporated radioactivity was quantified by liquid scintillation spectrophotometry on a TopCount NXT (PerkinElmer).

[9] = tested on: SMO-T241M expressing CGNPs; assay: as above; assay type: cell-based, mice; settings: high concentrations of vismodegib, FIGS. 14D and 15E
Description: as §6
as §2, with “After 24 hr, cells were harvested by trypsinization, collected in CGNP media and replated for downstream applications.” left out
as §7

[10] = tested on: SMO-A459V expressing CGNPs; assay: as above; assay type: cell-based, mice; settings: high concentrations of vismodegib, FIGS. 14D and 15E
Description: as §6
as §2, with “After 24 hr, cells were harvested by trypsinization, collected in CGNP media and replated for downstream applications.” left out
as §7

[11] = tested on: metastatic and locally advanced BCC; settings: cited from earlier work
[12] = target: T2, SMO-D384N (Homo sapiens, UniProt Q99835, D384N); assay: Gli-luciferase based Hh reporter assay in C3H10T½ cells transfected with SMO constructs; assay type: cell-based; settings: 1 μM vismodegib, FIG. 13C
T2 construct: expressed in transfected cells; host or cells: C3H10T½ cells (mouse)
Protocol: as §4
as §5, with “Elmer). Values were divided by renilla luciferase activities to normalize for transfection efficiency. Individual experiments were carried out in duplicate or triplicate and repeated at least once. Dose response data were fit to a 4-parameter equation in GraphPad Prism:” for “Elmer).”
(§8) The top and bottom (B) values were constrained to be […] for each sample. ‘H’ is the Hill Slope.

[13] = target: T3, SMO-S387N (Homo sapiens, UniProt Q99835, S387N); assay: as above; assay type: cell-based; settings: 1 μM vismodegib, FIG. 13C
T3 construct: expressed in transfected cells; host or cells: C3H10T½ cells (mouse)
Protocol: as §4
as §5, with “Elmer). Values were divided by renilla luciferase activities to normalize for transfection efficiency. Individual experiments were carried out in duplicate or triplicate and repeated at least once. Dose response data were fit to a 4-parameter equation in GraphPad Prism:” for “Elmer).”
as §8

[14] = target: T4, SMO-N219D (Homo sapiens, UniProt Q99835, N219D); assay: as above; assay type: cell-based; settings: 1 μM vismodegib, FIG. 13C
T4 construct: expressed in transfected cells; host or cells: C3H10T½ cells (mouse)
Protocol: as §4
as §5, with “Elmer). Values were divided by renilla luciferase activities to normalize for transfection efficiency. Individual experiments were carried out in duplicate or triplicate and repeated at least once. Dose response data were fit to a 4-parameter equation in GraphPad Prism:” for “Elmer).”
as §8

[15] = tested on: activating SMO mutants; assay: [3H]-vismodegib binding to HEK-293 cells transfected with SMO constructs; set-up: species or system human; settings: all activating mutants tested; cell surface expression comparable to SMO-WT; FIG. 15C
Protocol: as §4
(§9) 2×10E6 HEK-293 cells were seeded into 10-cm plates and transfected 16 hours later with 3 μg of either empty vector or SMO expression construct using GeneJuice (Novagen). Cells were harvested 40 hours later in PBS with 1 mM EDTA and fixed in PBS with 4% PFA for 10 minutes at room temperature (RT), after which they were washed 3× in PBS with 1 mM EDTA and plated into 96-well plates at 100,000 cells per well. […] of MicroScint fluid (Perkin Elmer) was added per well and counts per minute were assessed using a PerkinElmer TopCount NXT. All samples were analyzed in triplicate.

[16] = tested on: medulloblastoma; settings: initial response; no durable response, relapse of the tumor; cited from earlier work
[17] = target: SMO-L515A (Homo sapiens, UniProt Q99835, L515A); settings: L515A expressed, activating; 1 mM vismodegib; cited from earlier work
[18] = tested on: PPT CGNPs infected with SMO-C469Y; assay: methyl-[3H]-thymidine incorporation (proliferation) of virally transduced PPT CGNPs after removal of SHH; assay type: cell-based, mice; settings: 5 μM vismodegib
Description: as §1, §2, §3

[19] = tested on: PPT CGNPs infected with SMO DBP mutations; assay: as above; assay type: cell-based, mice; settings: all DBP mutations; high levels of vismodegib (>1 μM); FIG. 12D
Description: as §1, §2, §3

[20] = tested on: SMO-D473 mutants (all aa except P); settings: cited from earlier work
[21] = target: T5, SMO-I408V (Homo sapiens, UniProt Q99835, I408V); assay: [3H]-vismodegib binding to HEK-293 cells transfected with SMO constructs; settings: 5 nM [3H]-vismodegib, cell surface levels similar to SMO-WT, FIG. 12B
T5 construct: expressed in transfected cells; host or cells: HEK-293 cells
Protocol: as §4, §9

[22] = tested on: SMO-E518K and E518A; settings: cited from earlier work
[23] = target: SMO-D473H (Homo sapiens, UniProt Q99835, D473H); settings: cited from earlier work
Chain of SMO-D473H (Q99835 28-787 D473H): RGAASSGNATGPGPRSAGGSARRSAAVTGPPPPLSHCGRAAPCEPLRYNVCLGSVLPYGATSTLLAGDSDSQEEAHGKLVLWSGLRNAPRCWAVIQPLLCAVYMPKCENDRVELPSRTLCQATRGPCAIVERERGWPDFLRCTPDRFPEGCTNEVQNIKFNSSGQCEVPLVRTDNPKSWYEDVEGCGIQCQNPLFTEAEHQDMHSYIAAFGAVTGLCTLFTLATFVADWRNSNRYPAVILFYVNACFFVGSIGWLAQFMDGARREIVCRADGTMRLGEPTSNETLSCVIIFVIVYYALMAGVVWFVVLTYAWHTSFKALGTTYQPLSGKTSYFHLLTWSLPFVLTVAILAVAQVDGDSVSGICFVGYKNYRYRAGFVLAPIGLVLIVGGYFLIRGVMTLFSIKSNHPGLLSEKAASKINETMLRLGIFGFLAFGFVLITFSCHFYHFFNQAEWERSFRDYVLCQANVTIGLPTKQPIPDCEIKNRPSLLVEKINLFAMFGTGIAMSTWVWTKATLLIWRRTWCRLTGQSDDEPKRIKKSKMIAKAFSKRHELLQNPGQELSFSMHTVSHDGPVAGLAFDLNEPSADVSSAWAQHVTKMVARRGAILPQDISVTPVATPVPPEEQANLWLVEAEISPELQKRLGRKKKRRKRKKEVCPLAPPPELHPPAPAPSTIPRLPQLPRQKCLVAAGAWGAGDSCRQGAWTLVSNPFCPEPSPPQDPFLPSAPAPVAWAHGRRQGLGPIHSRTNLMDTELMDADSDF

T4 sequence (Q99835 28-787 N219D): as the sequence (Q99835 28-787 D473H) above, with N192D, H446D counted along it
T3 sequence (Q99835 28-787 S387N): as the sequence (Q99835 28-787 D473H) above, with S360N, H446D counted along it
T2 sequence (Q99835 28-787 D384N): as the sequence (Q99835 28-787 D473H) above, with D357N, H446D counted along it
T1 sequence (Q99835 28-787 A459V): as the sequence (Q99835 28-787 D473H) above, with A432V, H446D counted along it
T5 sequence (Q99835 28-787 I408V): as the sequence (Q99835 28-787 D473H) above, with I381V, H446D counted along it
Chain of SMO-L515A (Q99835 28-787 L515A): as the sequence (Q99835 28-787 D473H) above, with H446D, L488A counted along it

Cc1sc2c(c1C)C(c1ccc(Cl)cc1)=N[C@@H](CC(=O)OC(C)(C)C)c1nnc(C)n1-2 [JQ1]
proliferation of PPT CGNPs expressing vismodegib-resistant SMO mutants [1]: reduced proliferation
residual proliferation in SMO-WT ([2]; 1 μM JQ1 compared with 1 μM vismodegib, FIG. 16B): less residual proliferation

Cc1c(C(=O)Nc2ccc(N3C[C@@H](C)O[C@@H](C)C3)nc2)cccc1-c1ccc(OC(F)(F)F)cc1 [LDE-225]
sensitivity to LDE-225 [3]: N219D reduced
sensitivity to LDE-225 [4]: S387N reduced
sensitivity to LDE-225 [5]: L221R reduced
sensitivity to LDE-225 [6]: D384N reduced

CS(=O)(=O)c1ccc(C(=O)Nc2ccc(Cl)c(-c3ccccn3)c2)c(Cl)c1 [vismodegib]
sensitivity to vismodegib [7]: decreased sensitivity
proliferation in the presence of vismodegib [8]: continued to proliferate
proliferation in the presence of vismodegib [9]: continued to proliferate
proliferation in the presence of vismodegib [10]: continued to proliferate
clinical response of BCC patients treated with vismodegib ([11]; majority of BCC patients, complete and partial responses): clinical benefit
advanced BCC patients that develop resistance to vismodegib ([11]; within the first year of treatment, preliminary estimate): up to 20%
sensitivity to vismodegib compared to SMO-WT [12]: reduced sensitivity; also recorded: D384N reduced
sensitivity to vismodegib compared to SMO-WT [13]: reduced sensitivity; also recorded: S387N reduced
sensitivity to vismodegib compared to SMO-WT [14]: reduced sensitivity; also recorded: N219D reduced
vismodegib binding [15]: impaired
response of a patient to treatment [16]: dramatic response
inhibition by vismodegib [17]: activating, sensitive
proliferation in the presence of vismodegib [18]: continued to proliferate at near untreated levels
proliferation in the presence of vismodegib [19]: continuing to proliferate
IC50 ([2]; Mus musculus, SMO-WT and Cre, FIG. 12D): ~22 nM
vismodegib concentration at which proliferation was maximally inhibited ([2]; SMO-WT and Cre): 100 nM
sensitivity to vismodegib [20]: reduce sensitivity to
binding of [3H]-labeled vismodegib [21]: impaired
sensitivity to vismodegib [22]: reduced sensitivity to
drug binding in vitro [23]: abrogate drug binding
